Test results as given in ChEMBL document CHEMBL1143820, “Mutations in 16S rRNA and ribosomal protein S5 associated with high-level spectinomycin resistance in Pasteurella multocida” (2007).
In brackets after ≈: the same amount, converted by molar mass.

Legend:
Assay type in all cases: functional
Pasteurella multocida [1] = assay: Antibacterial activity against Pasteurella multocida isolate 3 with operon A,B,C,D,E,F 16S rRNA C1192G transversion mutation by CLSI M31-A2 method
Pasteurella multocida [2] = assay: Antibacterial activity against Pasteurella multocida isolate 14 by CLSI M31-A2 method
Pasteurella multocida [3] = assay: Antibacterial activity against Pasteurella multocida isolate 9 with operon B,C 16S rRNA C1192G transversion mutation and S5 protein 32-SF-33>32I mutation by CLSI M31-A2 method
Pasteurella multocida [4] = assay: Antibacterial activity against Pasteurella multocida isolate 6 with operon A,B,C,D,E 16S rRNA C1192G transversion mutation by CLSI M31-A2 method
Pasteurella multocida [5] = assay: Antibacterial activity against Pasteurella multocida isolate 5 with operon A,B,C,D,E,F 16S rRNA C1192G transversion mutation by CLSI M31-A2 method
Pasteurella multocida [6] = assay: Antibacterial activity against Pasteurella multocida isolate 16 by CLSI M31-A2 method
Pasteurella multocida [7] = assay: Antibacterial activity against Pasteurella multocida isolate 15 by CLSI M31-A2 method
Pasteurella multocida [8] = assay: Antibacterial activity against Pasteurella multocida isolate 17 by CLSI M31-A2 method
Pasteurella multocida [9] = assay: Antibacterial activity against Pasteurella multocida isolate 2 with operon A,B,C,D,E,F 16S rRNA C1192G transversion mutation by CLSI M31-A2 method
Pasteurella multocida [10] = assay: Antibacterial activity against Pasteurella multocida isolate 13 with loss of 23K in S5 protein by CLSI M31-A2 method
Pasteurella multocida [11] = assay: Antibacterial activity against Pasteurella multocida isolate 4 with operon A,B,C,D,E,F 16S rRNA C1192G transversion mutation by CLSI M31-A2 method
Pasteurella multocida [12] = assay: Antibacterial activity against Pasteurella multocida isolate 12 with operon B,C 16S rRNA C1192G transversion mutation and S5 protein 32-SF-33>32I mutation by CLSI M31-A2 method
Pasteurella multocida [13] = assay: Antibacterial activity against Pasteurella multocida isolate 1 with operon A,B,C,D,E,F 16S rRNA C1192G transversion mutation by CLSI M31-A2 method
Pasteurella multocida [14] = assay: Antibacterial activity against Pasteurella multocida isolate 10 with operon B,C 16S rRNA C1192G transversion mutation and S5 protein 32-SF-33>32I mutation by CLSI M31-A2 method
Pasteurella multocida [15] = assay: Antibacterial activity against Pasteurella multocida isolate 11 with operon B,C 16S rRNA C1192G transversion mutation and S5 protein 32-SF-33>32I mutation by CLSI M31-A2 method
Pasteurella multocida [16] = assay: Antibacterial activity against Pasteurella multocida isolate 7 with operon A,B,C,D,E 16S rRNA C1192G transversion mutation by CLSI M31-A2 method
Pasteurella multocida [17] = assay: Antibacterial activity against Pasteurella multocida isolate 8 with operon A,B,C,D,E 16S rRNA C1192G transversion mutation by CLSI M31-A2 method

Question: With `CN[C@@H]1[C@H](O)[C@H](NC)[C@H]2O[C@@]3(O)C(=O)C[C@@H](C)O[C@H]3O[C@@H]2[C@H]1O` [SPECTINOMYCIN] as the compound, how does the MIC (Pasteurella multocida [1]) read?
Answer: > 8190 µg/mL

Question: And the MIC (Pasteurella multocida [2])?
Answer: 16 µg/mL (≈ 0.0481 mM)

Question: What about the MIC (Pasteurella multocida [3]) of the same compound?
Answer: 4100 µg/mL (≈ 12.3 mM)

Question: What about the MIC (Pasteurella multocida [4]) of the same compound?
Answer: 4100 µg/mL (≈ 12.3 mM)

Question: And the MIC (Pasteurella multocida [5])?
Answer: > 8190 µg/mL

Question: And the MIC (Pasteurella multocida [6])?
Answer: 16 µg/mL (≈ 0.0481 mM)

Question: And the MIC (Pasteurella multocida [7])?
Answer: 16 µg/mL (≈ 0.0481 mM)

Question: What about the MIC (Pasteurella multocida [8]) of the same compound?
Answer: 16 µg/mL (≈ 0.0481 mM)

Question: And the MIC (Pasteurella multocida [9])?
Answer: > 8190 µg/mL

Question: What about the MIC (Pasteurella multocida [10]) of the same compound?
Answer: 4100 µg/mL (≈ 12.3 mM)

Question: What about the MIC (Pasteurella multocida [11]) of the same compound?
Answer: > 8190 µg/mL

Question: What about the MIC (Pasteurella multocida [12]) of the same compound?
Answer: > 8190 µg/mL

Question: What about the MIC (Pasteurella multocida [13]) of the same compound?
Answer: > 8190 µg/mL

Question: And the MIC (Pasteurella multocida [14])?
Answer: > 8190 µg/mL

Question: What about the MIC (Pasteurella multocida [15]) of the same compound?
Answer: > 8190 µg/mL

Question: What about the MIC (Pasteurella multocida [16]) of the same compound?
Answer: 8190 µg/mL (≈ 24.6 mM)

Question: What about the MIC (Pasteurella multocida [17]) of the same compound?
Answer: 4100 µg/mL (≈ 12.3 mM)
